Marks after values point to notes of the source that are not given here.
Assays:
Assay type in all cases: in vivo
Erysiphe graminis = test: Test F: wheat seedlings sprayed, next day inoculated with Erysiphe graminis (wheat powdery mildew), visual disease rating; settings: sprayed day before inoculation
Text: (§1) General protocol for preparing test suspensions for Tests A-F: the test compounds were first dissolved in acetone in an amount equal to 3% of the final volume and then suspended at the desired concentration (in ppm) in acetone and purified water (50/50 mix) containing 250 ppm of the surfactant Trem® 014 (polyhydric alcohol esters). The resulting test suspensions were then used in Tests A-F. Spraying a 200 ppm test suspension to the point of run-off on the test plants was the equivalent of a rate of 500 g/ha. An asterisk “*” next to the rating value indicates a 40 ppm test suspension.
The test suspension was sprayed to the point of run-off on wheat seedlings. The following day the seedlings were inoculated with a spore dust of Erysiphe graminis, (the causal agent of wheat powdery mildew) and incubated in a growth chamber at 20° C. for 8 days, after which time visual disease ratings were made.
(§2) Results for Tests A-F are given in Table A. In the Table, a rating of 100 indicates 100% disease control and a rating of 0 indicates no disease control (relative to the controls). A dash (-) indicates no test results. All results are for 200 ppm except where followed by “*”, which indicates 40 ppm.

[1] = system: Puccinia recondita f. sp. tritici; test: Test E1: wheat seedlings inoculated with Puccinia recondita f. sp. tritici (wheat leaf rust), sprayed afterwards, visual disease rating; settings: sprayed after inoculation
Text: as §1
Wheat seedlings were inoculated with a spore suspension of Puccinia recondita f. sp. tritici (the causal agent of wheat leaf rust) and incubated in a saturated atmosphere at 20° C. for 24 h, and then moved to a growth chamber at 20° C. for 2 days. At the end of this time the test suspension was sprayed to the point of run-off on the wheat seedlings, and then the seedlings were moved to a growth chamber at 20° C. for 6 days, after which time visual disease ratings were made.
as §2

Septoria nodorum = test: Test C: wheat seedlings sprayed, next day inoculated with Septoria nodorum (wheat glume blotch), visual disease rating; settings: sprayed day before inoculation
Text: as §1
(§3) The test suspension was sprayed to the point of run-off on wheat seedlings. The following day the seedlings were inoculated with a spore suspension of Septoria nodorum (the causal agent of wheat glume blotch) and incubated in a saturated atmosphere at 24° C. for 48 h, and then moved to a growth chamber at 20° C. for 6 days, after which time visual disease ratings were made.
as §2

Septoria tritici = test: Test D: wheat seedlings sprayed, next day inoculated with Septoria tritici (wheat leaf blotch), visual disease rating; settings: sprayed day before inoculation
Text: as §1
as §3, with “tritici” for “nodorum”, “leaf” for “glume”, “in” for “in a”, “19” for “6”
as §2

[2] = system: Puccinia recondita f. sp. tritici; test: Test E2: wheat seedlings sprayed, next day inoculated with Puccinia recondita f. sp. tritici (wheat leaf rust), visual disease rating; settings: sprayed day before inoculation
Text: as §1
The test suspension was sprayed to the point of run-off on wheat seedlings. The following day the seedlings were inoculated with a spore suspension of Puccinia recondita f. sp. tritici (the causal agent of wheat leaf rust) and incubated in a saturated atmosphere at 20° C. for 24 h, and then moved to a growth chamber at 20° C. for 7 days, after which time visual disease ratings were made.
as §2

Alternaria solani = test: Test B: tomato seedlings sprayed, next day inoculated with Alternaria solani (tomato early blight), visual disease rating; settings: sprayed day before inoculation
Text: as §1
as §3, with “tomato” for “wheat”, “Alternaria solani” for “Septoria nodorum”, “tomato early blight)” for “wheat glume blotch)”, “27°” for “24°”, “5” for “6”
as §2

Botrytis cinerea = test: Test A: tomato seedlings sprayed, next day inoculated with Botrytis cinerea (tomato Botrytis), visual disease rating; settings: sprayed day before inoculation
Text: as §1
The test suspension was sprayed to the point of run-off on tomato seedlings. The following day the seedlings were inoculated with a spore suspension of Botrytis cinerea (the causal agent of tomato Botrytis) and incubated in saturated atmosphere at 20° C. for 48 h, and then moved to a growth chamber at 24° C. for 3 days, after which time visual disease ratings were made.
as §2

[3] = Blumeria graminis, 40 ppm test suspension (*)
[4] = Puccinia recondita, 40 ppm test suspension (*)
[5] = Parastagonospora nodorum, 40 ppm test suspension (*)
[6] = Zymoseptoria tritici, 40 ppm test suspension (*)
[7] = Alternaria solani, 40 ppm test suspension (*)
[8] = Botrytis cinerea, 40 ppm test suspension (*)
[9] = Puccinia recondita, 200 ppm test suspension

Row | SMILES | Test F rating (disease control) (Erysiphe graminis; 200 ppm test suspension) [%] | Test E1 rating (disease control) ([1]; 200 ppm test suspension) [%] | Test C rating (disease control) (Septoria nodorum; 200 ppm test suspension) [%] | Test D rating (disease control) (Septoria tritici; 200 ppm test suspension) [%] | Test E2 rating (disease control) ([2]; 200 ppm test suspension) [%] | Test B rating (disease control) (Alternaria solani; 200 ppm test suspension) [%] | Test A rating (disease control) (Botrytis cinerea; 200 ppm test suspension) [%] | other results
1 | COc1cc(OC)c(Cl)c(-c2c(C)nnc(Cl)c2-c2ccc(F)cc2F)c1 [Compound 44] | 100 | 96 | 64 | 100 | 100 | 99 | 66 | 
2 | COc1cc(OC)cc(-c2c(C)nnc(Cl)c2-c2ccc(F)cc2Cl)c1 [Compound 48] | 97 | 0 | 0 |  | 99 | 100 |  | 
3 | COc1cc(OC)c(Cl)c(-c2c(C)nnc(F)c2-c2ccc(F)cc2F)c1 [Compound 51] | 99 | 0 | 0 |  | 100 | 100 | 99 | 
4 | COc1cc(OC)cc(-c2c(CC#N)nnc(C)c2-c2c(F)cccc2F)c1 [Compound 35] | 99 | 46 | 99 | 100 | 100 | 99 | 98 | 
5 | COc1cc(OC)c(Cl)c(-c2c(C)nnc(C)c2-c2c(F)cccc2Cl)c1 [Compound 43] | 100 | 0 | 99 | 100 | 100 | 82 | 62 | 
6 | COc1cc(OC)cc(-c2c(C)nnc(Cl)c2-c2ccc(F)cc2F)c1 [Compound 32] | 89 | 0 | 78 | 99 | 99 | 99 | 99 | 
7 | COc1cc(OC)c(Cl)c(-c2c(C)nnc(C)c2-c2ccc(F)cc2F)c1 [Compound 49] | 100 | 100 | 99 |  | 100 | 99 |  | 
8 | COc1cc(OC)c(Cl)c(-c2c(C)nnc(Cl)c2-c2ccc(F)cc2Cl)c1 [Compound 53] | 100 | 98 | 98 |  | 100 | 99 | 99 | 
9 | COc1cc(OC)cc(-c2c(C)nnc(Cl)c2-c2c(F)cccc2Cl)c1 [Compound 38] | 100 | 85 | 99 | 100 | 100 | 99 | 100 | 
10 | COc1cc(OC)cc(-c2c(C(C)C)nnc(Cl)c2-c2c(F)cc(F)cc2F)c1 [Compound 16] | 100 | 100 | 92 | 99 | 100 | 99 | 99 | 
11 | COc1cc(OC)cc(-c2c(C)nnc(C)c2-c2ccc(F)cc2Cl)c1 [Compound 52] | 99 | 9 | 87 |  | 100 | 94 | 99 | 
12 | COc1cc(OC)cc(-c2c(C)nnc(C)c2-c2ccc(F)cc2F)c1 [Compound 40] | 95 | 0 | 97 | 100 | 100 | 99 | 100 | 
13 | COc1cc(OC)cc(-c2c(C)nnc(F)c2-c2ccc(F)cc2F)c1 [Compound 46] | 98 | 0 | 84 | 100 | 98 | 100 | 99 | 
14 | COc1cc(OC)cc(-c2c(C)nnc(Cl)c2-c2c(F)cccc2F)c1 [Compound 24, 3-chloro-4-(2,6-difluorophenyl)-5-(3,5-dimethoxyphenyl)-6-methylpyridazine] |  |  |  |  |  |  |  | pest or weed control at 40 ppm (Erysiphe graminis; [3]): 98%; pest or weed control at 40 ppm [1, 4]: 26%; pest or weed control at 40 ppm (Septoria nodorum; [5]): 55%; pest or weed control at 40 ppm (Septoria tritici; [6]): 100%; pest or weed control at 40 ppm [2, 4]: 100%; pest or weed control at 40 ppm (Alternaria solani; [7]): 26%; pest or weed control at 40 ppm (Botrytis cinerea; [8]): 100%
15 | COc1ccc(-c2c(C)nnc(C(C)=O)c2-c2cc(OC)cc(OC)c2)cc1 [Compound 14] | 84 | 16 | 0 | 99 | 95 | 0 | 99 | 
16 | COc1cc(OC)cc(-c2cnnc(Cl)c2-c2c(F)cc(F)cc2F)c1 [Compound 5, 3-chloro-5-(3,5-dimethoxyphenyl)-4-(2,4,6-trifluorophenyl)pyridazine] |  |  |  |  |  |  |  | pest or weed control at 200 ppm (Erysiphe graminis; Blumeria graminis, 200 ppm test suspension): 100%; pest or weed control at 200 ppm [1, 9]: 99%; pest or weed control at 200 ppm (Septoria nodorum; Parastagonospora nodorum, 200 ppm test suspension): 100%; pest or weed control at 200 ppm (Septoria tritici; Zymoseptoria tritici, 200 ppm test suspension): 98%; pest or weed control at 200 ppm [2, 9]: 100%; pest or weed control at 200 ppm (Alternaria solani; Alternaria solani, 200 ppm test suspension): 100%; pest or weed control at 200 ppm (Botrytis cinerea; Botrytis cinerea, 200 ppm test suspension): 99%
17 | COc1cc(OC)cc(-c2c(C(C)=O)nnc(C)c2-c2c(F)cc(F)cc2F)c1 [Compound 20, 1-[4-(3,5-dimethoxyphenyl)-6-methyl-5-(2,4,6-trifluorophenyl)-3-pyridazinyl]ethanone] |  |  |  |  |  |  |  | pest or weed control at 40 ppm (Erysiphe graminis; [3]): 98%; pest or weed control at 40 ppm [1, 4]: 41%; pest or weed control at 40 ppm (Septoria nodorum; [5]): 0%; pest or weed control at 40 ppm (Septoria tritici; [6]): 96%; pest or weed control at 40 ppm [2, 4]: 99%; pest or weed control at 40 ppm (Alternaria solani; [7]): 26%; pest or weed control at 40 ppm (Botrytis cinerea; [8]): 99%
18 | COc1ccc(-c2c(C)nnc(C(C)(C)O)c2-c2cc(OC)cc(OC)c2)cc1 [Compound 19] |  |  |  |  |  |  |  | Test F rating (disease control) (Erysiphe graminis; 40 ppm test suspension (*)): 27* %; Test E1 rating (disease control) ([1]; 40 ppm test suspension (*)): 0* %; Test C rating (disease control) (Septoria nodorum; 40 ppm test suspension (*)): 0* %; Test D rating (disease control) (Septoria tritici; 40 ppm test suspension (*)): 97* %; Test E2 rating (disease control) ([2]; 40 ppm test suspension (*)): 96* %; Test B rating (disease control) (Alternaria solani; 40 ppm test suspension (*)): 99* %; Test A rating (disease control) (Botrytis cinerea; 40 ppm test suspension (*)): 84* %
19 | COc1cc(-c2c(C)nnc(C)c2-c2ccc(F)cc2F)cc(OC)c1Cl [Compound 50] | 100 | 100 | 100 |  | 100 | 100 |  | 
20 | COc1cc(OC)cc(-c2c(C)nnc(F)c2-c2c(F)cccc2Cl)c1 [Compound 47] | 99 | 100 | 99 |  | 99 | 100 |  | 

From patent publication US20120135995A1, “FUNGICIDAL DIPHENYL-SUBSTITUTED PYRIDAZINES” (E.I. Dupont de Nemours and Company, priority 2009, published 2012)
